Among the data in ChEMBL document CHEMBL3588835, “Discovery of a new chemical series of BRD4(1) inhibitors using protein-ligand docking and structure-guided design” (Bioorg Med Chem Lett, 2015) are inhibition and IC50 values, retold here.

As a reminder, the inhibition is the change of the read-out against control, counted positive when it falls. A higher inhibition goes with a strong effect. A word on the IC50: it is the concentration needed to halve the response being measured. Low readings indicate higher potency, high ones lower potency.

Experiment [1] deals with T1, Bromodomain-containing protein 4 (Homo sapiens, UniProt O60885). In words: Inhibition of HTRF binding to N-terminal His-tagged BRD4(1) (unknown origin) at 50 uM using biotinylated tetra-acetylated histone H4 peptide and Cryptate-labeled streptavidin incubated for 2 hrs by TR-FRET assay.
Experiment [2] concerns the target T2, Bromodomain-containing protein 2 (Homo sapiens, UniProt P25440). In words: Inhibition of HTRF binding to N-terminal His-tagged BRD2(2) (unknown origin) at 50 uM using biotinylated tetra-acetylated histone H4 peptide and Cryptate-labeled streptavidin incubated for 2 hrs by TR-FRET assay. (TR-FRET usually uses a lanthanide donor and a delayed reading to cut background.)
Target sequence in this assay (P25440 whole entry, looked up): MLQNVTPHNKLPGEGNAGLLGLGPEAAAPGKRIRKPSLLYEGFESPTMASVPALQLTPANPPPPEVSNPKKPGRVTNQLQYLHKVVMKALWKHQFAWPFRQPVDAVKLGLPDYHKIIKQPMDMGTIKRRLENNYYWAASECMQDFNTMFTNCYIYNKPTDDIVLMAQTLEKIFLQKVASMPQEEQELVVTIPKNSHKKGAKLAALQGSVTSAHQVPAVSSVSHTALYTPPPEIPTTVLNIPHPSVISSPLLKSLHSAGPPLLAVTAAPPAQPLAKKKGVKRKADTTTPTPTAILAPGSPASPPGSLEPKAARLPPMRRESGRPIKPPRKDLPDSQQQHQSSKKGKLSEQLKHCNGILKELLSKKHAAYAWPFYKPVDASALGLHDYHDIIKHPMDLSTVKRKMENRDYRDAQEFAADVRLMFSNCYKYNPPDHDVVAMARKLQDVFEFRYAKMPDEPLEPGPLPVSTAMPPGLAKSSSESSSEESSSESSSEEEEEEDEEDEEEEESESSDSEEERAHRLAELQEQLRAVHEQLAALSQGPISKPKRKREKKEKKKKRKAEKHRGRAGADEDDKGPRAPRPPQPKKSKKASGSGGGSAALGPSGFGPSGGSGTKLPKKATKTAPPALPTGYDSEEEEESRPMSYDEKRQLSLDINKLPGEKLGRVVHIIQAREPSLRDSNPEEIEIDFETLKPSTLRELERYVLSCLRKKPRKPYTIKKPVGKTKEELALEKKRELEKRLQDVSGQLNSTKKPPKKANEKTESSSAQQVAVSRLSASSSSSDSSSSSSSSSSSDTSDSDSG

Experiment [3] concerns the target T1, Bromodomain-containing protein 4. In words: Inhibition of HTRF binding to N-terminal His-tagged BRD4(1) (unknown origin) using biotinylated tetra-acetylated histone H4 peptide and Cryptate-labeled streptavidin incubated for 2 hrs by TR-FRET assay.
Experiment [4] has as its target T2, Bromodomain-containing protein 2. The experiment in a line: Inhibition of HTRF binding to N-terminal His-tagged BRD2(2) (unknown origin) using biotinylated tetra-acetylated histone H4 peptide and Cryptate-labeled streptavidin incubated for 2 hrs by TR-FRET assay.
Target sequence in this assay (P25440 whole entry): as the sequence (P25440 whole entry, looked up) above

`O=C1CN(C(=O)Cc2ccc(Cl)cc2)c2ccccc2N1`: the inhibition in experiment [1] was 0%; in experiment [2], 25%.

With `N#Cc1cccc(-c2cncc(C(=O)N3CC(=O)Nc4ccccc43)c2)c1`, the IC50 in experiment [3] came out at 44 µM; in experiment [4], 12 µM.

For `CSc1ccc(CC(=O)N2CC(=O)Nc3ccccc32)cc1`, the inhibition in experiment [1] and in experiment [2] was 0% throughout.

As to `O=C1CN(C(=O)Cc2cccc3ccccc23)c2ccccc2N1`, the inhibition in experiment [1] was above 25%; in experiment [2], above 50%.

As to `Cc1cccc(OCCC(=O)N2CC(=O)Nc3ccccc32)c1`, the inhibition was found to be 0% in experiment [1] and 25% in experiment [2].

As to `O=C1CN(C(=O)c2cccc(C(F)(F)F)c2)c2ccccc2N1`, the inhibition in experiment [1] is above 25%; in experiment [2], above 50%.

On to `Cc1ccc(CC(=O)N2CC(=O)Nc3ccccc32)cc1`, for which the inhibition in experiment [1] and in experiment [2] was 0% each time.

For `COc1ccc(/C=C(/C(=O)Nc2c(C)noc2C)c2ccc(OC)cc2)cc1`, the results for the IC50 in experiment [3] and in experiment [4] were 44 µM and 12 µM, respectively.

`COC(=O)c1ccc(/C=C(/C(=O)N2CC(=O)Nc3ccccc32)c2ccccc2)cc1`: the half-maximal inhibitory concentration (IC50) in experiment [3] and in experiment [4] was 25 µM each time.

As for `CSc1ccc(Cl)c(C(=O)N2CC(=O)Nc3ccccc32)c1`, the inhibition in experiment [1] and in experiment [2] was 0% throughout.

For `O=C1CN(C(=O)c2cncc(-c3ccccc3)c2)c2ccccc2N1`, the IC50 in experiment [3] came to 26 µM; in experiment [4], 20 µM.

Turning to `CS(=O)(=O)N(CC(=O)N1CC(=O)Nc2ccccc21)c1ccccc1F`, the inhibition in experiment [1] and in experiment [2] was 0% each time.

In the case of `NC(=O)c1ccc(/C=C(/C(=O)N2CC(=O)Nc3ccccc32)c2ccccc2)cc1`, the values for the IC50 in experiment [3] and in experiment [4] were 46 µM and 49 µM, respectively.

As to `COc1ccc(/C=C(/C(=O)N2CC(=O)Nc3ccccc32)c2ccc(C)c(C)c2)cc1`, the IC50 in experiment [3] was 14 µM; in experiment [4], above 50 µM.

In the case of `CCc1ccc(CC(=O)N2CC(=O)Nc3ccccc32)cc1`, the inhibition in experiment [1] and in experiment [2] was 0% throughout.

In turn, `O=C1CN(C(=O)c2cc(O)cc(-c3ccccc3)c2)c2ccccc2N1` came in with an IC50 in experiment [3] of 9 µM.

For the compound `COc1ccc(/C=C(/C(=O)N2CC(=O)Nc3ccccc32)c2cccs2)cc1`, the IC50 in experiment [3] was found to be 13 µM; in experiment [4], 23 µM.

In the case of `O=C1CN(C(=O)c2cc(-c3cccc(Cl)c3)[nH]n2)c2ccccc2N1`, the inhibition in experiment [1] and in experiment [2] was 0% each time.

For the compound `O=C1CN(C(=O)C(c2ccccc2)c2ccccc2)c2ccccc2N1`, the inhibition in experiment [1] is above 25%; in experiment [2] it was above 50%.

As for `COc1ccc(/C=C(/C(=O)N2CC(=O)Nc3cc(OC)ccc32)c2ccc(OC)cc2)cc1`, the concentration for half-maximal inhibition (IC50) in experiment [3] and in experiment [4] was 13 µM each time.

Turning to `O=C1CN(C(=O)c2cncc(-c3cccc(O)c3)c2)c2ccccc2N1`, the half-inhibitory concentration (IC50) in experiment [3] is 29 µM.

Take `COc1ccc(/C=C(/C(=O)N2CC(=O)Nc3ccccc32)c2ccc(OC)cc2)cc1`: the IC50 in experiment [3] worked out at 16 µM; in experiment [4], 13 µM.

`COc1ccc(/C=C(/C(=O)N2CC(=O)Nc3cc(OC)ccc32)c2ccccc2)cc1`: the half-inhibitory concentration (IC50) in experiment [3] is 34 µM; in experiment [4], above 50 µM.

For `O=C1CN(C(=O)c2sc3ccccc3c2Cl)c2ccccc2N1`, the inhibition was found to be 0% in experiment [1] and 25% in experiment [2].

Regarding `COc1cc(C(=O)N2CC(=O)Nc3ccccc32)cc(-c2ccccc2)c1`, the IC50 in experiment [3] came out at 13 µM. That is a double-digit micromolar value.

Turning to `COc1ccc(/C=C(/C(=O)N2CC(=O)Nc3ccccc32)c2ccccc2)cc1`, the inhibition was above 25% in experiment [1] and above 50% in experiment [2]. Moreover, the 50% inhibitory concentration (IC50) was found to be 26 µM in experiment [3] and 22 µM in experiment [4].

As to `COc1ccc(CC(=O)N2CC(=O)Nc3ccccc32)cc1OC`, the inhibition in experiment [1] was 0%; in experiment [2], 25%.

With `COc1ccc(/C=C(/C(=O)N2CC(=O)Nc3ccccc32)c2ccc(OC)cc2OC)cc1`, the IC50 in experiment [3] and in experiment [4] was above 50 µM in each case.

Turning to `O=C1CN(C(=O)c2cncc(-c3ccc(Cl)cc3)c2)c2ccccc2N1`, the IC50 in experiment [3] came out at 49 µM.

On to `COc1cccc(OCC(=O)N2CC(=O)Nc3ccccc32)c1`, for which the results for the inhibition in experiment [1] and in experiment [2] were 0% and 25%, respectively.

`COc1cc(NCc2ccccc2)cc(C(=O)N2CC(=O)Nc3ccccc32)c1` yielded an IC50 in experiment [3] above 50 µM.

Turning to `COc1cccc(-c2cncc(C(=O)N3CC(=O)Nc4ccccc43)c2)c1`, the IC50 in experiment [3] was 25 µM.

Consider `COc1ccc(/C(=C\c2ccncc2)C(=O)N2CC(=O)Nc3ccccc32)cc1`, for which the figures for the half-inhibitory concentration (IC50) in experiment [3] and in experiment [4] were 25 µM and 5 µM, respectively.

For `O=C1CN(C(=O)Cc2cccs2)c2ccccc2N1`, the inhibition in experiment [1] and in experiment [2] was 0% in each case.

On to `CSc1ccccc1C(=O)N1CC(=O)Nc2ccccc21`, for which the inhibition in experiment [1] is above 25%; in experiment [2], above 50%.

For the compound `COc1ccc(/C=C(/C(=O)N2CC(=O)Nc3ccccc32)c2ccc(OC)c(OC)c2)cc1`, the IC50 in experiment [3] turned out to be 18 µM; in experiment [4] it was 26 µM.

As to `Cc1ccc(-c2cc(C(=O)N3CC(=O)Nc4ccccc43)[nH]n2)cc1`, the inhibition in experiment [1] and in experiment [2] was 0% throughout.

For the compound `O=C1CN(C(=O)CCc2ccccc2Cl)c2ccccc2N1`, the inhibition was found to be 0% in experiment [1] and 25% in experiment [2].

Turning to `CC(C)Sc1ccccc1C(=O)N1CC(=O)Nc2ccccc21`, the inhibition was found to be 0% in experiment [1] and 25% in experiment [2].

For `CCn1ccc(C(=O)N2CC(=O)Nc3ccccc32)n1`, the inhibition in experiment [1] is above 25%; in experiment [2] it was above 50%.

Consider `CC(=O)Nc1cccc(/C=C(/C(=O)N2CC(=O)Nc3ccccc32)c2ccccc2)c1`, for which the IC50 in experiment [3] was found to be 40 µM; in experiment [4] it was 10 µM.

On to `O=C1CN(C(=O)c2cccc(F)c2)c2ccccc2N1`, for which the inhibition turned out to be 0% in experiment [1] and 25% in experiment [2].

The compound `O=C1CN(C(=O)c2cncc(-c3ccc(F)cc3)c2)c2ccccc2N1` gave an IC50 in experiment [3] of 47 µM.

Take `COc1ccc(/C=C(/C(=O)N2CC(=O)Nc3ccccc32)c2ccc(NC(C)=O)cc2)cc1`: the values for the IC50 in experiment [3] and in experiment [4] were 13 µM and 24 µM, respectively.
